We go through 32 sequences from the supplement of paper PMC11208160.
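Note: IS621 recombinase and bridge RNA in Escherichia coli cells.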

This data set is described as follows: recombinant barcode read abundance after kanamycin selection (control-corrected) (log10(CPM+1)); higher = more efficient recombination; sequences stand for … in AGTGCAGAGAAAATCGGCCAGTTTTCTCTGCCTGCAGTCCGCATGCCGT…AGATTTATGCAGCGGACTGCCTTTCTCCCAAAGTGATAAACCGGACAGTATCATGGACCGGTTTTCCCGGTAATCCGTATTTGCAAGGTTGGTTTCACT; site = the 11-nt target. The gist of the method: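 Oligos holding a promoter, target, barcode and the J23119-driven first 104 bases of the bridge RNA were Gibson-cloned into a vector that supplied the other 73 bp plus a T7-inducible recombinase. This library was co-electroporated with a donor plasmid into E. coli. Two replicates went on chloramphenicol/ampicillin LB agar (control) and two on chloramphenicol/ampicillin/kanamycin with 0.1 mM IPTG. Recombination efficiency is read from averaged, control-corrected barcode counts per million at recombinant junctions, reported as log10(CPM+1).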
“CTCGGAACTTGGGTTCTAACCTGTTGCAT (site CTCGGAACTAT)”: the “recombinant barcode read abundance (log10)” value amounted to 1.86. The same measure for “CTCGGAACTTGGGTTCTAACCTGTTGCAT (site CTGGGAACTCT)”: 0.00945. Regarding “CTCGGGCCTTGGGTTCTAACCTGTTGCCT (site ATCGGGCCTAG)”, the “recombinant barcode read abundance (log10)” value was determined as 0.0932. The same measure for “CTCGGGCCTTGGGTTCTAACCTGTTGCCT (site CTCGGGCCTAG)”: 0.144; for “CTCGGGCCTTGGGTTCTAACCTGTTGCCT (site GTCGGGCCTAG)”: 0.0296; for “CTCGGGCCTTGGGTTCTAACCTGTTGCCT (site TTCGGGCCTAG)”: 0.0756. Turning to “CTCGTTACTTGGGTTCTAACCTGTTGCCT (site CTCGTAACTAG)”, the “recombinant barcode read abundance (log10)” value was found to be 0.0393. Regarding “CTCGTTACTTGGGTTCTAACCTGTTGCCT (site CTCGTCACTAG)”, the “recombinant barcode read abundance (log10)” value was determined as 0.112. To “CTCGTTACTTGGGTTCTAACCTGTTGCCT (site CTCGTGACTAG)” belongs 0.0469; to “CTCGTTACTTGGGTTCTAACCTGTTGCCT (site CTCGTTACTAG)”, 0.682.

In the case of “CTCGTTGCTTGGGTTCTAACCTGTTGCCT (site ATCGTTGCTAG)”, the “recombinant barcode read abundance (log10)” value came out at 0.0725. For “CTCGTTGCTTGGGTTCTAACCTGTTGCCT (site CTCGTTGCTAG)”, the “recombinant barcode read abundance (log10)” value was 0.519.

For “CTCGTTGCTTGGGTTCTAACCTGTTGCCT (site GTCGTTGCTAG)”, the “recombinant barcode read abundance (log10)” value stood at 0.0989. Take “CTCGTTGCTTGGGTTCTAACCTGTTGCCT (site TTCGTTGCTAG)”: the “recombinant barcode read abundance (log10)” value was 0.0838. The same measure for “CTCTAGTCTTGGGTTCTAACCTGTTGCAT (site CTCTAGTCTAA)”: 0.545. The same measure for “CTCTAGTCTTGGGTTCTAACCTGTTGCAT (site CTCTAGTCTAC)”: 0.263; for “CTCTAGTCTTGGGTTCTAACCTGTTGCAT (site CTCTAGTCTAG)”: 0.109. To “CTCTAGTCTTGGGTTCTAACCTGTTGCAT (site CTCTAGTCTAT)” belongs 1.8.

Regarding “CTCTAGTCTTGGGTTCTAACCTGTTGCGT (site CTCTAGTCTAA)”, the “recombinant barcode read abundance (log10)” value came to 0.268. The same measure for “CTCTAGTCTTGGGTTCTAACCTGTTGCGT (site CTCTAGTCTAC)”: 2.54; for “CTCTAGTCTTGGGTTCTAACCTGTTGCGT (site CTCTAGTCTAG)”: 0.125; for “CTCTAGTCTTGGGTTCTAACCTGTTGCGT (site CTCTAGTCTAT)”: 1.79. To “CTCTCAGCTTGGGTTCTAACCTGTTGCGA (site CTCTAAACTTC)” belongs 0.15; to “CTCTCAGCTTGGGTTCTAACCTGTTGCGA (site CTCTCAGCTTC)”, 0.549. To “CTCTCCACTTGGGTTCTAACCTGTTGCCA (site CTCTCCACTTG)” belongs 0.138.

In the case of “CTCTCCACTTGGGTTCTAACCTGTTGCCA (site CTCTCGACTTG)”, the “recombinant barcode read abundance (log10)” value turned out to be 0.0411.

Consider “CTCTCCGCTTGGGTTCTAACCTGTTGCCT (site CTCTCCGCTAG)”, for which the “recombinant barcode read abundance (log10)” value was found to be 0.77. Regarding “CTCTCCGCTTGGGTTCTAACCTGTTGCCT (site CTCTCCTCTAG)”, the “recombinant barcode read abundance (log10)” value came to 0.0931.

For “CTCTCGACTTGGGTTCTAACCTGTTGCCA (site CTCTCCACTTG)”, the “recombinant barcode read abundance (log10)” value was determined as 0.0478.

For the sequence “CTCTCGACTTGGGTTCTAACCTGTTGCCA (site CTCTCGACTTG)”, the “recombinant barcode read abundance (log10)” value turned out to be 0.328. The same measure for “CTCTCGTCTTGGGTTCTAACCTGTTGCAT (site CTCTCGTCTAA)”: 0.0866; for “CTCTCGTCTTGGGTTCTAACCTGTTGCAT (site CTCTCGTCTAC)”: 0.08.
